Several values for one entry are separate records, joined by “and”; a condition that tells them apart may be missing. Identical values can stand only once. Entries after “also recorded” stand apart in the source; their conditions may differ.
Columns and labels:
[1] = test system: MDA-MB-435 metastatic breast cancer cells; assay: Cell viability, CellTiter 96 AQueous One Solution Cell Proliferation Assay; type: cell-based, human; conditions: HV-107 24 or 48 h, HV-118 48 h
Description: (§1) FIG. 7. Effect of HV-107 on cell viability. Cells were treated with vehicle control (0.5% DMSO) or varying concentrations of HV-107 (250-6000 nM) for 48 h. Cell viability was measured using the CellTiter 96® AQueous One Solution Cell Proliferation Assay from Promega, as per manufacturer's instruction. Relative cell viability is presented for non-cancerous mammary epithelial cells (MCF10A) or metastatic breast cancer cells MDA-MB-231 or MDA-MB-435. N=3-4, each with three technical replicates; Error bars represent ±SEM; * p≤0.05.
(§2) FIG. 9. Effect of HV-118 on cell viability. Cells were treated with vehicle control (0.5% DMSO) or varying concentrations of HV-118 (10-500 nM) for 48 h. Cell viability was measured using the CellTiter 96® AQueous One Solution Cell Proliferation Assay from Promega, as per manufacturer's instruction. Relative cell viability is presented for human non-cancerous mammary epithelial cells (MCF10A) or human metastatic breast cancer cells MDA-MB-231 or MDA-MB-435. N=3, each with three technical replicates; error bars represent ±SEM; * p≤0.05.
(§3) Cells were treated with ehicle control (0.5% DMSO) or varying concentrations of HV-107 (250-8000 nM) for 24 or 48 h. Cell viability was measured using the CellTiter 96® AQueous One Solution Cell Proliferation Assay from Promega, as per manufacturer's instruction. Relative cell viability is presented for non-cancerous mammary epithelial cells MCF10A (FIG. 7) or metastatic breast cancer cells MDA-MB-231 or MDA-MB-435. N=3, each with three technical replicates; Error bars represent ±SEM; * p≤0.05.
as §2, with “Cells” for “FIG. 9. Effect of HV-118 on cell viability. Cells”, “MCF10A (FIG. 9)” for “(MCF10A)”

[2] = test system: non-cancerous mammary epithelial cells MCF10A; assay: as above; type: cell-based, human; conditions: for toxicity / effect on viability of non-cancerous mammary epithelial cells, in words: MCF10A, at the concentrations tested
Description: as §1, §2, §3
as §2, with “Cells” for “FIG. 9. Effect of HV-118 on cell viability. Cells”, “MCF10A (FIG. 9)” for “(MCF10A)”

[3] = test system: MDA-MB-231 metastatic breast cancer cells; assay: as above; type: cell-based, human; conditions: HV-107 24 or 48 h, HV-118 48 h
Description: as §1, §2, §3
as §2, with “Cells” for “FIG. 9. Effect of HV-118 on cell viability. Cells”, “MCF10A (FIG. 9)” for “(MCF10A)”

Rac = Rac (Homo sapiens, UniProt P63000); assay: Rac activation, pulldown with p21-binding domain of PAK / ELISA-based Rac activity assay; type: cell-based; design: endogenous in cells; host or cells: MDA-MB-231 and MDA-MB-435 human breast cancer cells; conditions: for efficiency of Rac activation inhibition compared to lead compound Ehop-016: metastatic breast cancer cells
Description: FIG. 8 (A-B). Effect of HV-107 on Rac activation. FIG. 8A. MDA-MB-231 and FIG. 8B. MDA-MB-435 human breast cancer cells were treated for 24 h with 0, 100, or 250 nM HV-107. After treatment, total protein was extracted and equal amounts of proteins subjected to pulldown assays using the p21-binding domain of PAK to isolate the GTP bound (active) Rac. Samples were then western blotted for total and active Rac and positive bands quantified using image J. N=2; error bars represent ±SEM; * p≤0.05.
FIG. 10 (A-B). Effect of HV-118 on Rac activation. FIG. 10A. MDA-MB-231 and FIG. 10B. MDA-MB-435 human breast cancer cells were treated for 24 h with 0, 25, 50, or 100 nM HV-118. After treatment, total protein was extracted and equal amounts of proteins subjected to pulldown assays using the p21-binding domain of PAK to isolate the GTP bound (active) Rac. Samples were then western blotted for total and active Rac and positive bands quantified using image J. N=3-6; error bars represent ±SEM; * p≤0.05.
Additionally, the effect of replacing the aliphatic amide group at the 3-position with an aromatic ring, was also explored by synthesizing compound 7b. […] Addition of a three-carbon atom aliphatic chain linker between the pyridine ring (at the 2-position) and the morpholine group, as for 3d and 11a, results in some loss of anti-migratory activity. Moreover, the effect of 11b was tested on Rac activity, using an ELISA-based Rac activity assay and pulldowns assay.
The effects of HV-107 on the inhibition of Rac activation were tested by pulldown assays.
(§4) In FIG. 8A and FIG. 8B, human breast cancer cells MDA-MB-231 and MDA-MB-435, respectively, were treated for 24 h with 0, 250, or 500 nM HV-107. After treatment, total protein was extracted and equal amounts of proteins subjected to pulldown assays using the p21-binding domain of PAK to isolate the GTP bound (active) Rac. Samples were then western blotted for total and active Rac and positive bands quantified using image J. N=2; error bars represent ±SEM; * p≤0.05.
The effects of HV-118 on the inhibition of Rac activation were tested by pulldown assays.
as §4, with “10A” for “8A”, “10B,” for “8B,”, “25, 50,” for “250,”, “100” for “500”, “HV-118.” for “HV-107.”, “N=3-6;” for “N=2;”

| inhibition at 0.25 µM (Rac; at 250 nM, 24 h, MDA-MB-231 and MDA-MB-435 cells) [%] | inhibition of Rac activation (Rac; at 250 nM, 24 h, MDA-MB-231 and MDA-MB-435 cells, listed as HV-107, 0.25 µM) | SMILES | concentration at which viability is significantly inhibited [1] [nM] | toxicity / effect on viability of non-cancerous mammary epithelial cells, in words [2] | concentration at which viability is significantly inhibited [3] [nM] | inhibition at 0.1 µM (Rac; at 100 nM, 24 h, MDA-MB-231 and MDA-MB-435 cells) [%] | efficiency of Rac activation inhibition compared to lead compound Ehop-016 (Rac) | potency relative to EHop-016 (Rac; preliminary data) | toxicity / effect on viability of non-cancerous mammary epithelial cells, in words ([2]; listed as HV-107) | toxicity to non-cancerous mammary epithelial cells, in words ([2]; at concentrations ≥1 μM) |
| --- | --- | --- | --- | --- | --- | --- | --- | --- | --- | --- |
| – | – | CCn1c2ccccc2c2cc(Nc3cc(C)nc(Cl)n3)ccc21 [HV-118, (2-Chloro-6-methyl-pyrimidin-4-yl)-(9-ethyl-9H-carbazol-3-yl)-amine] | ≥ 50 | minimal effects; also recorded: minimal or no inhibition; also recorded: minimal toxicity | ≥ 50 | ~60 | approximately 10 × | up to 20 times | – | – |
| 55 | 60% and 50% | CCn1c2ccccc2c2cc(C(=O)Nc3cccnc3N3CCOCC3)ccc21 [Compound 11b, 9-Ethyl-9H-carbazole-3-carboxylic Acid (2-morpholin-4-yl-pyridin-3-yl)-amide] | ≥ 500 | – | ≥ 500 | – | approximately 4 × | – | minimal toxicity; also recorded: minimal or no inhibition | not toxic |

From patent publication US11446299B2, “Carbazole EHop-016 derivatives as anticancer and anti-migratory agents” (UNIVERSITY OF PUERTO RICO, priority 2017, dated 2022)
